{"source": "patent US20250127755A1", "about": "“PHARMACOLOGICAL DEPLETION OF HEME FOR THE TREATMENT OF MYELODYSPLASTIC SYNDROME” (THE SCRIPPS RESEARCH INSTITUTE, priority 2021, published 2025)", "key": {"MDS-L cells [1]": {"tested_on": "MDS-L cells", "test": "MDS-L differentiation assay (GlyA positivity, 384-well FACS-based)", "settings": "for Maximal MDS-LGlyA fold induction: human; for EC50: read-out: MDS-L GlyA induction EC50; for inducing differentiation to more terminal blood lineages (GlyA immunopositivity): 384-well FACS-based assay", "protocol": "MDS-L differentiation assay. Given a limited number of patient samples and the low yield from each biopsy, it is not tractable to conduct high-throughput screens with primary cells.\nTo establish a screening assay, we selected known differentiation inducers of acute myeloid leukemia cells including retinoic acid (ATRA), Brequinar, and phorbol 12-myristate 13-acetate (PMA).\nMDS-L were cultured in RPMI (17-105-CV, Corning) without phenol red and supplemented with 2 mM glutamine and 10% FBS. Cells first expanded in IL-3 until 70% confluence then pre-conditioned for 14 days with IL-3 (200-03, PeproTech), GCSF (300-23, PeproTech), and EPO (287-TC, R&D Systems) to promote erythroid and myeloid differentiation. A density of 10000 cells per well were used in phenotypic assays. MDSL cells were spun and treatment media was replaced with media containing APC Anti-CD235a (GlyA) (551336. BD Biosciences) (1.25 μL per 50 μL test) and incubated for 1 hour at 4° C. Cells were washed then counter stained with SYTOX-Green 1 μM per 100 μL prior to flow cytometry, analysis. Dose response and pharmacological assays were analyzed using a ZE5 Cell Analyzer (BioRad) equipped with Everest software. Single, live, cells were analyzed for GlyA expression using FlowJo v10.7.2 software."}, "MDS-L cells [2]": {"tested_on": "MDS-L cells", "test": "Heme levels of MDS-L cells", "format": "cell-based", "settings": "over relevant time periods, FIG. 4B", "protocol": "FIG. 4A-FIG. 4C. Heme depletion induces terminal differentiation of MDS-L cells. A: Relative induction of GlyA positive MDS-L cells in response to treatment for 96 hours with the indicated concentrations of NMPP. B: Heme levels of MDS-L cells treated with the indicated compounds. C: Relative induction of GlyA positive cells after 96-hour treatment with artemisone and hemin.\nAn additional consequence of this mechanism is the alkylation of artemisinin to heme, resulting in its functional inactivation. Because we found no other reactive oxygen species (ROS)-inducers or alkylators as active hits from the screen, we reasoned that heme depletion is a way in which artemisinins promote differentiation of this cellular population."}, "MDS-L cells [3]": {"tested_on": "MDS-L cells", "test": "CFU assays of MDS-L cells", "format": "cell-based"}, "MDS-L cells [4]": {"tested_on": "MDS-L cells", "test": "Loss of CD71", "format": "cell-based"}, "MDS-L cells [5]": {"tested_on": "MDS-L cells", "test": "Induction of apoptosis", "format": "cell-based", "settings": "below 20 μM"}}}
{"compound": "c1cc([C@H]2CC[C@]3(CC2)OOC2(O3)[C@@H]3C[C@H]4C[C@H](C[C@@H]2C4)C3)ccc1OCCN1CCOCC1", "note": "(stereo partly drawn) [Artefenomel (OZ-439), Artefenomel]", "values": [{"measurement": "Maximal MDS-LGlyA fold induction", "setting": "MDS-L cells [1]", "result": 3.71, "unit": "fold"}, {"measurement": "EC50", "setting": "MDS-L cells [1]", "result": 5.65, "unit": "µM"}]}
{"compound": "Cc1c(-c2ccc(-c3ccccc3F)cc2)nc2ccc(F)cc2c1C(=O)O", "note": "[Brequinar]", "values": [{"measurement": "inducing differentiation to more terminal blood lineages (GlyA immunopositivity)", "setting": "MDS-L cells [1]; MDS-L cells", "result": "efficacious"}]}
{"compound": "C[C@H]1[C@@H](O)O[C@@H]2O[C@@]3(C)CC[C@H]4[C@H](C)CC[C@@H]1[C@@]24OO3", "note": "[Dihydroarte misin, dihydroartemisinin]", "values": [{"measurement": "Maximal MDS-LGlyA fold induction", "setting": "MDS-L cells [1]", "result": 7.09, "unit": "fold"}, {"measurement": "EC50", "setting": "MDS-L cells [1]", "result": 0.61, "unit": "µM"}]}
{"compound": "N-methylprotoporphyrin [NMPP]", "values": [{"measurement": "GlyA positivity in MDS-L cells", "setting": "MDS-L cells [1]; treatment for 96 hours, FIG. 4A", "result": "increase"}, {"measurement": "levels of labile heme in MDS-L cells", "setting": "MDS-L cells [2]", "result": "efficiently reduced"}]}
{"compound": "CCO[C@H]1O[C@@H]2O[C@@]3(C)CC[C@H]4[C@H](C)CC[C@@H]([C@H]1C)[C@@]24OO3", "note": "[Arteether]", "values": [{"measurement": "Maximal MDS-LGlyA fold induction", "setting": "MDS-L cells [1]", "result": 3.82, "unit": "fold"}, {"measurement": "EC50", "setting": "MDS-L cells [1]", "result": 0.58, "unit": "µM"}, {"measurement": "number of BFU-E, CFU-GM and CFU-GEMM type colonies", "setting": "MDS-L cells [3]", "result": "decreasing"}, {"measurement": "terminal differentiation of MDS-L cells to CFU-Es", "setting": "MDS-L cells [3]", "result": "efficaciously induced"}, {"measurement": "loss of CD71", "setting": "MDS-L cells [4]", "result": "efficaciously promoted"}, {"measurement": "induction in apoptosis", "setting": "MDS-L cells [5]", "result": "no significant induction"}]}
{"compound": "CC(C)(N)CNC(=O)C[C@H]1CC[C@]2(CC1)OO[C@]1(O2)[C@@H]2C[C@H]3C[C@@H](C2)C[C@@H]1C3", "note": "[Arterolane (OZ-277), Arterolane]", "values": [{"measurement": "Maximal MDS-LGlyA fold induction", "setting": "MDS-L cells [1]", "result": 7.02, "unit": "fold"}, {"measurement": "EC50", "setting": "MDS-L cells [1]", "result": 1.74, "unit": "µM"}]}
{"compound": "C[C@@H]1CC[C@H]2[C@@H](C)C(=O)O[C@@H]3O[C@@]4(C)CC[C@@H]1[C@]32O4", "note": "[2-deoxy-artemisinin]", "values": [{"measurement": "activity in differentiation assays", "setting": "MDS-L cells [1]", "result": "inactive"}]}
{"compound": "C[C@H]1[C@H](N2CCS(=O)(=O)CC2)O[C@@H]2O[C@@]3(C)CC[C@H]4[C@H](C)CC[C@@H]1[C@@]24OO3", "note": "[Artemisone]", "values": [{"measurement": "potential to induce differentiation of MDS-L cells on addition of exogenous heme (hemin)", "setting": "MDS-L cells [1]; 96-hour treatment with artemisone and hemin, FIG. 4C", "result": "suppressed"}, {"measurement": "Maximal MDS-LGlyA fold induction", "setting": "MDS-L cells [1]", "result": 6.84, "unit": "fold"}, {"measurement": "EC50", "setting": "MDS-L cells [1]", "result": 0.15, "unit": "µM"}, {"measurement": "number of BFU-E, CFU-GM and CFU-GEMM type colonies", "setting": "MDS-L cells [3]", "result": "decreasing"}, {"measurement": "terminal differentiation of MDS-L cells to CFU-Es", "setting": "MDS-L cells [3]", "result": "efficaciously induced"}, {"measurement": "loss of CD71", "setting": "MDS-L cells [4]", "result": "efficaciously promoted"}, {"measurement": "induction in apoptosis", "setting": "MDS-L cells [5]", "result": "no significant induction"}, {"measurement": "levels of labile heme in MDS-L cells", "setting": "MDS-L cells [2]", "result": "efficiently reduced"}]}
{"compound": "CC1=C(/C=C/C(C)=C/C=C/C(C)=C/C(=O)O)C(C)(C)CCC1", "note": "[ATRA, retinoic acid]", "values": [{"measurement": "cytotoxicity as readout by live dead cell gating", "setting": "MDS-L cells [1]; MDS-L cells, FIG. 2", "result": "minimal cytotoxicity"}]}
{"compound": "C[C@H]1[C@@H](OCc2ccc(C(=O)O)cc2)O[C@@H]2O[C@@]3(C)CC[C@H]4[C@H](C)CC[C@@H]1[C@@]24OO3", "note": "[Artelinic acid (artelinate), Artelinic acid]", "values": [{"measurement": "Maximal MDS-LGlyA fold induction", "setting": "MDS-L cells [1]", "result": 7.26, "unit": "fold"}, {"measurement": "EC50", "setting": "MDS-L cells [1]", "result": 0.03, "unit": "µM"}]}
{"compound": "CCCCCCCCCCCCCC(=O)O[C@@H]1[C@@H](C)[C@@]2(O)[C@@H](C=C(CO)C[C@]3(O)C(=O)C(C)=C[C@@H]23)[C@@H]2C(C)(C)[C@]12OC(C)=O", "note": "[PMA, phorbol 12-myristate 13-acetate]", "values": [{"measurement": "inducing differentiation to more terminal blood lineages (GlyA immunopositivity)", "setting": "MDS-L cells [1]; MDS-L cells", "result": "efficacious"}]}
{"compound": "C[C@H]1[C@H](OC(=O)CCC(=O)O)O[C@@H]2O[C@@]3(C)CC[C@H]4[C@H](C)CC[C@@H]1[C@@]24OO3", "note": "(stereo in doubt) [Artesunate]", "values": [{"measurement": "Maximal MDS-LGlyA fold induction", "setting": "MDS-L cells [1]", "result": 7.51, "unit": "fold"}, {"measurement": "EC50", "setting": "MDS-L cells [1]", "result": 0.85, "unit": "µM"}]}
